The source of these data is DBAASP.

In general, MIC refers to the smallest concentration in the dilution series that meets the test's criterion for growth inhibition. Read a low MIC as a more susceptible organism.

Test systems include Candida albicans; Escherichia coli UB1005; Escherichia coli BW25113.
Holding throughout (assay): ≥ marks a high value that may be exact or a test limit, other limits are often not marked, values filed in µg/mL are converted to µM
Test [1] concerns Escherichia coli ATCC 25726.
Test [2] deals with Staphylococcus aureus ATCC 25923.
The subject of test [3] is Candida albicans ATCC 90028.
Test [4] concerns Escherichia coli ATCC 25922.
Test [5] relates to Enterococcus faecalis ATCC 29212.
Test [6] deals with Pseudomonas aeruginosa H103.
The test system of test [7] is Salmonella enterica serovar Typhimurium.
Test [8] relates to Staphylococcus epidermidis.
Test [9] relates to Bacillus subtilis KCTC 3068.
For test [10], the system named is Escherichia coli KCTC 1682.
The subject of test [11] is Pseudomonas aeruginosa KCTC 1637.
Test [12] deals with Salmonella typhimurium KCTC 1926.
Test [13] deals with Staphylococcus aureus KCTC 1621.
Test [14] relates to Staphylococcus epidermidis KCTC 1917.

Converted amounts (≈) assume the structure as drawn. Some results are limits rather than exact numbers.

Regarding `CSCC[C@H](NC(=O)[C@H](CC(C)C)NC(=O)[C@@H]1CCCN1C(=O)CNC(=O)[C@H](CC(C)C)NC(=O)[C@H](CC(C)C)NC(=O)[C@H](C)NC(=O)CNC(=O)[C@H](CC(C)C)NC(=O)[C@@H](N)Cc1ccccc1)C(=O)N[C@@H](CC(N)=O)C(=O)N[C@@H](CC(C)C)C(=O)N[C@@H](CC(C)C)C(=O)N[C@@H](CCC(N)=O)C(N)=O` [FLGALLGPLMNLLQ], the MIC in test [1] was not below 160 µM; in [2], more than 160 µM.
On the same counts, the results for `CC[C@H](C)[C@H](NC(=O)CN)C(=O)N[C@@H](Cc1ccccc1)C(=O)N[C@@H](CO)C(=O)N[C@@H](CC(C)C)C(=O)N[C@H](C(=O)N[C@@H](CCCCN)C(=O)NCC(=O)N[C@@H](C)C(=O)N[C@@H](C)C(=O)N[C@@H](CCC(N)=O)C(=O)N[C@@H](CC(C)C)C(=O)N[C@H](C(=O)NCC(=O)N[C@@H](CCCCN)C(=O)N[C@H](C(=O)N[C@H](C(=O)N[C@@H](C)C(=O)N[C@@H](CCCCN)C(=O)N[C@@H](CCC(=O)O)C(=O)N[C@@H](C)C(=O)NCC(=O)N[C@@H](CCCCN)C(=O)N[C@H](C(=O)NCC(=O)N[C@@H](CC(C)C)C(=O)N[C@@H](CCC(=O)O)C(=O)N[C@@H](CC(C)C)C(=O)N[C@@H](CCSC)C(=O)N[C@@H](C)C(=O)N[C@H]1CSSC[C@@H](C(=O)O)NC(=O)[C@H](CCC(N)=O)NC(=O)[C@H](CCCCN)NC(=O)[C@H]([C@@H](C)O)NC(=O)[C@H](C(C)C)NC(=O)[C@H](CCCCN)NC1=O)[C@@H](C)O)C(C)C)[C@@H](C)O)[C@@H](C)CC)[C@@H](C)CC` [GIFSLIKGAAQLIGKTVAKEAGKTGLELMACKVTKQC] are 16.4 µM (≈ 62.5 µg/mL) and 32.8 µM (≈ 125 µg/mL).
Turning to `CC[C@H](C)[C@H](NC(=O)CN)C(=O)NCC(=O)N[C@@H](CCCCN)C(=O)N[C@@H](Cc1ccccc1)C(=O)N[C@@H](CC(C)C)C(=O)N[C@@H](Cc1cnc[nH]1)C(=O)N[C@@H](CO)C(=O)N[C@@H](C)C(=O)NCC(=O)N[C@@H](CCCCN)C(=O)N[C@@H](Cc1ccccc1)C(=O)NCC(=O)N[C@@H](CCCCN)C(=O)N[C@@H](C)C(=O)N[C@@H](Cc1ccccc1)C(=O)N[C@@H](CC(C)C)C(=O)NCC(=O)N[C@@H](CCC(=O)O)C(=O)N[C@H](C(=O)N[C@@H](CCSC)C(=O)N[C@@H](CCCCN)C(=O)N[C@@H](CO)C(=O)O)C(C)C` [GIGKFLHSAGKFGKAFLGEVMKS], the MIC in test [3] was not below 100 µM; in test [1], not below 50 µM; in test [4], 50 µM (≈ 120 µg/mL); in test [2], more than 200 µM.
Regarding `CC[C@H](C)[C@H](NC(=O)[C@H](CCCN=C(N)N)NC(=O)[C@H](C)NC(=O)[C@H](CC(C)C)NC(=O)CN)C(=O)N[C@H](C(=O)N[C@H](C(=O)N[C@H](C(=O)N[C@@H](CCCN=C(N)N)C(=O)N[C@H](C(=O)N[C@@H](C)C(=O)N[C@@H](CCCN=C(N)N)C(N)=O)C(C)C)[C@@H](C)CC)C(C)C)C(C)C` [GLARIVVIRVAR], the minimum inhibitory concentration (MIC) against Candida albicans was 94.5 µM (≈ 125 µg/mL); in test [5], 23.4 µM (≈ 31 µg/mL); with Escherichia coli UB1005, 12.1 µM (≈ 16 µg/mL); in [6] it was not below 94.5 µM; in [7], not below 47.6 µM; in test [2], 47.6 µM (≈ 63 µg/mL). In test [8], this molecule gave a minimum inhibitory concentration (MIC) of 12.1 µM (≈ 16 µg/mL).
Take `CSCC[C@H](NC(=O)[C@H](Cc1ccccc1)NC(=O)[C@H](CCCCN)NC(=O)CNC(=O)[C@H](C)NC(=O)[C@H](C)NC(=O)[C@H](CCCCN)NC(=O)[C@H](CC(C)C)NC(=O)CNC(=O)[C@H](Cc1ccccc1)NC(=O)[C@H](CCCCN)NC(=O)[C@H](CC(C)C)NC(=O)[C@H](C)NC(=O)[C@H](CCCCN)NC(=O)CNC(=O)[C@H](CC(C)C)NC(=O)[C@H](CC(C)C)NC(=O)[C@H](CO)NC(=O)CNC(=O)[C@H](CC(C)C)NC(=O)CN)C(=O)NCC(=O)NCC(=O)N[C@@H](CCC(=O)O)C(=O)N1CCC[C@H]1C(=O)N[C@@H](CCC(N)=O)C(=O)N[C@@H](CCC(N)=O)C(=O)O` [GLGSLLGKALKFGLKAAGKFMGGEPQQ]: the minimum inhibitory concentration (MIC) in test [1] and in [2] was 25 µM (≈ 67.6 µg/mL) in each case.
On to `CC[C@H](C)[C@H](N)C(=O)N[C@@H](CC(C)C)C(=O)N[C@@H](CCCN=C(N)N)C(=O)N[C@@H](Cc1c[nH]c2ccccc12)C(=O)N[C@@H](CCCCN)C(=O)N[C@@H](Cc1c[nH]c2ccccc12)C(=O)N[C@@H](CCCN=C(N)N)C(=O)N[C@@H](Cc1c[nH]c2ccccc12)C(=O)N[C@@H](Cc1c[nH]c2ccccc12)C(=O)N[C@@H](CCCN=C(N)N)C(=O)N[C@@H](Cc1c[nH]c2ccccc12)C(=O)N[C@@H](CCCN=C(N)N)C(=O)N[C@@H](CCCN=C(N)N)C(=O)O` [ILRWKWRWWRWRR], for which the MIC with Candida albicans came out at 5.7 µM (≈ 11.9 µg/mL); in [5] it was 2.9 µM (≈ 6.05 µg/mL); against Escherichia coli UB1005 it was 1.4 µM (≈ 2.92 µg/mL); in [6], 5.7 µM (≈ 11.9 µg/mL); in test [7] it was 2.9 µM (≈ 6.05 µg/mL); in test [2], 0.7 µM (≈ 1.46 µg/mL). This molecule displayed an MIC in test [8] of 0.7 µM (≈ 1.46 µg/mL).
Regarding `NCCCC[C@H](NC(=O)[C@H](Cc1ccccc1)NC(=O)[C@H](CCCN=C(N)N)NC(=O)[C@H](CCCCN)NC(=O)[C@H](CCCCN)NC(=O)[C@H](CCCN=C(N)N)NC(=O)[C@@H](N)CCCCN)C(=O)N[C@@H](Cc1c[nH]c2ccccc12)C(=O)N[C@@H](Cc1c[nH]c2ccccc12)C(=O)O` [KRKKRFKWW], the MIC was 41.2 µM (≈ 56.1 µg/mL) against Candida albicans; 10.3 µM (≈ 14 µg/mL) in test [5]; 20.6 µM (≈ 28.1 µg/mL) against Escherichia coli UB1005; not below 115 µM in [6]; 20.6 µM (≈ 28.1 µg/mL) in [7]; 2.6 µM (≈ 3.54 µg/mL) in [2]. In test [8], this molecule gave a minimal inhibitory concentration (MIC) of 2.6 µM (≈ 3.54 µg/mL).
In turn, `CC[C@H](C)[C@H](NC(=O)[C@@H]1CCCN1C(=O)[C@H](CCCN=C(N)N)NC(=O)[C@H](CCCN=C(N)N)NC(=O)[C@H](CCCN=C(N)N)NC(=O)[C@@H](NC(=O)[C@@H]1CCCN1C(=O)[C@@H]1CCCN1C(=O)[C@H](CCCN=C(N)N)NC(=O)[C@H](Cc1ccccc1)NC(=O)[C@@H](N)CCCN=C(N)N)[C@@H](C)CC)C(=O)N[C@@H](CCCN=C(N)N)C(=O)N1CCC[C@H]1C(=O)N1CCC[C@H]1C(=O)N[C@@H](Cc1ccccc1)C(=O)N[C@@H](Cc1ccc(O)cc1)C(=O)N1CCC[C@H]1C(=O)O` [RFRPPIRRRPIRPPFYP] registered an MIC in the test with Escherichia coli BW25113 of 8 µM (≈ 17.8 µg/mL). This counts as single-digit micromolar.
Take `CC[C@H](C)[C@H](NC(=O)[C@@H]1CCCN1C(=O)[C@H](Cc1c[nH]c2ccccc12)NC(=O)[C@H](CCCN=C(N)N)NC(=O)[C@H](Cc1ccccc1)NC(=O)[C@@H](N)CCCN=C(N)N)C(=O)N[C@@H](CCCN=C(N)N)C(=O)N[C@@H](CCCN=C(N)N)C(=O)N[C@@H](CCCN=C(N)N)C(=O)N1CCC[C@H]1C(=O)N[C@H](C(=O)N[C@@H](CCCN=C(N)N)C(=O)N1CCC[C@H]1C(=O)N1CCC[C@H]1C(=O)N[C@@H](Cc1ccccc1)C(=O)N[C@@H](Cc1ccc(O)cc1)C(=O)N[C@@H](Cc1c[nH]c2ccccc12)C(=O)O)[C@@H](C)CC` [RFRWPIRRRPIRPPFYW]: the MIC against Escherichia coli BW25113 turned out to be 4 µM (≈ 9.6 µg/mL).
Consider `CC[C@H](C)[C@H](NC(=O)[C@H](CCCN=C(N)N)NC(=O)[C@H](CCCN=C(N)N)NC(=O)[C@H](CC(C)C)NC(=O)[C@@H](N)CCCN=C(N)N)C(=O)N[C@H](C(=O)N[C@H](C(=O)N[C@H](C(=O)N[C@@H](CCCN=C(N)N)C(=O)N[C@H](C(=O)N[C@@H](CCCN=C(N)N)C(=O)N[C@@H](CCCN=C(N)N)C(N)=O)C(C)C)[C@@H](C)CC)C(C)C)C(C)C` [RLRRIVVIRVRR], for which the MIC in test [9] came to 3.93 µM (≈ 6.25 µg/mL); against Candida albicans, 19.5 µM (≈ 31 µg/mL); in [5], 2.51 µM (≈ 4 µg/mL); in test [10], 7.85 µM (≈ 12.5 µg/mL); in the test on Escherichia coli UB1005, 1.26 µM (≈ 2 µg/mL); in [6], 5.03 µM (≈ 8 µg/mL). For the same molecule, the MIC in [11] was 3.93 µM (≈ 6.25 µg/mL); in test [7], 5.03 µM (≈ 8 µg/mL); in [12], 0.98 µM (≈ 1.56 µg/mL); in test [2], 5.03 µM (≈ 8 µg/mL); in test [13], 1.97 µM (≈ 3.13 µg/mL); in [14], 1.97 µM (≈ 3.13 µg/mL). Also, the minimum inhibitory concentration (MIC) in test [8] was found to be 1.26 µM (≈ 2 µg/mL).
The molecule `CC[C@H](C)[C@H](NC(=O)[C@H](CCCN=C(N)N)NC(=O)[C@@H]1CCCN1C(=O)[C@@H](NC(=O)[C@H](CCCN=C(N)N)NC(=O)[C@@H]1CCCN1C(=O)[C@@H](NC(=O)[C@@H]1CCCN1C(=O)[C@H](Cc1ccccc1)NC(=O)[C@@H]1CCCN1C(=O)[C@@H]1CCCN1C(=O)[C@@H]1CCCN1C(=O)[C@H](Cc1ccccc1)NC(=O)[C@H](CCCN=C(N)N)NC(=O)[C@@H]1CCCN1C(=O)[C@@H](N)CCCN=C(N)N)[C@@H](C)CC)[C@@H](C)CC)C(=O)N1CCC[C@H]1C(=O)O` [RPRFPPPFPIPRIPRIP] yielded an MIC against Escherichia coli BW25113 not below 64 µM.
Take `CC[C@H](C)[C@H](NC(=O)[C@H](CCCCN)NC(=O)[C@H](Cc1c[nH]c2ccccc12)NC(=O)[C@H](CCCCN)NC(=O)[C@@H](N)Cc1ccc(O)cc1)C(=O)N[C@@H](CCCN=C(N)N)C(=O)N[C@@H](Cc1ccccc1)C(=O)N[C@@H](CCCCN)C(=O)N[C@@H](CCCN=C(N)N)C(=O)O` [YKWKIRFKR]: the MIC in the test on Candida albicans was 16.3 µM (≈ 21.6 µg/mL); in [5], 16.3 µM (≈ 21.6 µg/mL); against Escherichia coli UB1005 it was 4.1 µM (≈ 5.43 µg/mL); in [6], not below 32.6 µM; in test [7] it was 8.2 µM (≈ 10.9 µg/mL); in test [2], 4.1 µM (≈ 5.43 µg/mL). In addition, the MIC in [8] turned out to be 1 µM (≈ 1.32 µg/mL).
